# Data: patent US20050020580A1, “Materials and methods for the prevention or treatment of apoptosis and apoptosis-related diseases and conditions” (priority 2002, published 2005)
# Like-named read-outs stand apart in the source and are kept apart here.
# Legend:
# [1] = Mouse pharmacokinetic studies: plasma drug concentrations by LC/MS/MS; format: in vivo, mice (BALB/C); settings: oral
# Description: Administration of PI for Experimental Protocols: Six to eight-week-old BALB/C mice (Jackson Labs, Bar Harbor, Me.) were acclimatized for one week before receiving either control vehicle or PI by gavage. PIs were prepared by dissolving 1% weight per volume carboxymethylcellulose and 15 mg/mL Nelfinavir (NFV) oral powder (commercial preparation, Agouron Laboratories, La Jolla, Calif.) in 2% ethanol in distilled water. […] The PI mixture was administered every 8 hours for the indicated number of doses and mice were either sacrificed for pharmacokinetic studies or treated as described. Histopathology was performed by a consulting veterinary pathologist who was blinded as to the nature of experimental treatments.
# Immediately preceding the fourth dose and every two hours post gavage until hour 8, plasma drug concentrations were assayed. At both doses, NFV was undetectable (i.e. <2.5 ng/mL) 6 hours after dosing.
# Drug levels were assessed in two mice each for several time-points. NFV levels were 8172 and 8914 ng/mL at 1 hour, 5999 and 6006 ng/mL at 2 hours, 5559 and 6048 ng/mL at 3 hours, and 4005 to 4217 ng/mL at 4 hours post-dosing.
# [2] = NFV and RIT concentrations in brain tissues of mice given NFV/RIT suspension; format: in vivo; settings: 3 doses of NFV/RIT suspension, whole brain removed immediately preceding the fourth dose, two mice; for concentration at 8 h: C57BL/6, mouse, brain, oral
# Description: Supernatants were then analyzed as described herein for drug level determination. […] Given the significant drug levels achieved in the brains of these mice, the effects of PI in a mouse model of stroke could be examined.
# Eschericheria coli = test: Minimal inhibitory concentration (MIC), NCCLS guidelines; format: cell-based; settings: five clinical isolates
# Jurkat T cells [3] = test: Fas signaling in Jurkat T cells stimulated with CH-11 anti-Fas antibody; format: cell-based
# From the text: Annexin-V and Propidium Iodide Staining. […] Western Blot Analysis. […] Fluorometric Caspase 8 and 3 Activity.
# hepatocytes = test: Fas signaling ex vivo in hepatocytes from mice challenged with IV Jo-2; settings: hepatocytes from pretreated mice
# Description: Hepatocyte isolation: Four hours after treatment with 7.5 μg of Jo-2 antibody, mice were euthanized with pentobarbital (60 mg/kg, Abbott), and hepatocytes isolated via a two-step collagenase digestion (Seglen, P. O. Methods Cell Biol 13, 29-83, 1976). Following red cell lysis, hepatocytes were enumerated and evaluated for loss of ΔΨm, and caspase 8 and 3 activity. Fluorometric Caspase 8 and 3 Activity.
# wild type yeast = test: Yeast clonogenic assay of apoptosis (Vpr peptide or H2O2); format: cell-based, Saccharomyces cerevisiae; settings: varying doses
# PTPC = PTPC proteoliposomes, 4-MUP fluorescence release; format: biochemical, rat; settings: increasing doses of NFV
# Description: Liposome technology: PTPC (1 mg/ml) was separated from rat brains and ANT (0.1 mg/ml) from rat heart mitochondria as previously described (Brenner, C. et al. Methods Enzymol 322, 243-52, 2000; Marzo, I. et al. Biomed Pharmacother 52, 248-51, 1998). Immediately after purification, pure proteins were reconstituted into proteoliposomes (phosphatidylcholin/cholesterol [5:1;w:w] for PTPC and phosphatidylcholin/cardiolipin [45:1; w:w] for ANT) (Belzacq, A. S. et al. Cancer Res 63, 541-6, 2003). […] S. et al. Cancer Res 63, 541-6, 2003). 25 μl of proteoliposomes were incubated with the indicated agents (30 min for NFV and 60 min for ATR and Vpr52-96 at RT). […] The release of 4-MU was measured by spectrofluorimetry (excitation wave length 360 nm; emission wave length 450 nm). The maximum 4-MUP release was determined by adding 5% Triton X-100 to proteoliposomes. The percentage of 4-MUP release induced by treatment of liposomes by ATR was determined as [(ATR−treated liposomes fluorescence−untreated liposomes fluorescence)/(TX-100-treated liposomes fluorescence−untreated liposomes fluorescence)]×100. The maximal fluorescence induced by 800 μM ATR was then identified as 100% 4-MUP release and the fluorescence induced by the treatment of liposomes by another product or another dose was calculated as a percentage of ATR-induced 4-MUP release.
# ANT = molecular target: T1, ANT (Rattus norvegicus, UniProt Q05962); test: ANT proteoliposomes, 4-MUP fluorescence release; format: biochemical; settings: p<0.05
# T1 construct: ANT (0.1 mg/ml) from rat heart mitochondria; from tissue; host or cells: rat heart mitochondria
# T1 sequence (Q05962 1-298): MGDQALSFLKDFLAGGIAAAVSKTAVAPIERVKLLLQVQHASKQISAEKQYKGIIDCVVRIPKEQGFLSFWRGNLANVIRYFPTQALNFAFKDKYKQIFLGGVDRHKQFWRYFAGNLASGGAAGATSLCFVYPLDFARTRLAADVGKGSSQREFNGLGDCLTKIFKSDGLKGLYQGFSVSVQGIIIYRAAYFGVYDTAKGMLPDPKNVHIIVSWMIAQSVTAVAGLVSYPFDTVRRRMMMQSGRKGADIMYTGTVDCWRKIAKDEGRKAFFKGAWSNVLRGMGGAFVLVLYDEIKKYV
# Description: Liposome technology: PTPC (1 mg/ml) was separated from rat brains and ANT (0.1 mg/ml) from rat heart mitochondria as previously described (Brenner, C. et al. Methods Enzymol 322, 243-52, 2000; Marzo, I. et al. Biomed Pharmacother 52, 248-51, 1998). Immediately after purification, pure proteins were reconstituted into proteoliposomes (phosphatidylcholin/cholesterol [5:1;w:w] for PTPC and phosphatidylcholin/cardiolipin [45:1; w:w] for ANT) (Belzacq, A. S. et al. Cancer Res 63, 541-6, 2003). […] The release of 4-MU was measured by spectrofluorimetry (excitation wave length 360 nm; emission wave length 450 nm). The maximum 4-MUP release was determined by adding 5% Triton X-100 to proteoliposomes. The percentage of 4-MUP release induced by treatment of liposomes by ATR was determined as [(ATR−treated liposomes fluorescence−untreated liposomes fluorescence)/(TX-100-treated liposomes fluorescence−untreated liposomes fluorescence)]×100. The maximal fluorescence induced by 800 μM ATR was then identified as 100% 4-MUP release and the fluorescence induced by the treatment of liposomes by another product or another dose was calculated as a percentage of ATR-induced 4-MUP release.
# RAW264.7 cells = format: cell-based, mouse
# [4] = co-administration of RIT with NFV in human subjects (Raines et al.); cited from earlier work
# Pseudomonas aeruginosa = test: Minimal inhibitory concentration (MIC), NCCLS guidelines
# Enterococcus = test: as above
# Streptococcus bovis = test: as above; settings: Streptococcus equinus
# Jurkat T cells [5] = test: Apoptosis by selective PTPC agonists (ATR, STS, PK11195) in Jurkat T cells
compound,measurement,setting,value
"Cc1c(O)cccc1C(=O)N[C@@H](CSc1ccccc1)[C@H](O)CN1C[C@H]2CCCC[C@H]2C[C@H]1C(=O)NC(C)(C)C [NFV, nelfinavir]",concentration at 6 h,"[1]; BALB/C, NFV alone, 125 mg/kg or 250 mg/kg every 8 hours by gavage, BALB/C mice, read-out: NFV plasma drug concentration 6 hours after dosing",< 2.5 ng/mL
same,Cmax,[1]; pharmacokinetic studies in mice (data not shown),~8 µM
same,Levels of NFV in brain tissue,[2],986 μg/gm of brain tissue
same,concentration at 8 h,[2]; read-out: Levels of NFV in brain tissue,682000 ng/g
same,MIC,Eschericheria coli,> 10 µM
same,"Procaspase 8 cleavage and activity, and Bid cleavage vs vehicle control cells","Jurkat T cells [3]; NFV pretreated, CH-11",similar
same,"ΔΨm (loss of DiOC6 retention), cytochrome c release, caspase 9, and caspase 3 cleavage and activity","Jurkat T cells [3]; NFV pretreatment, CH-11",reduced
same,Apoptosis (Annexin positivity) after CH-11 anti-CD95 antibody,"Jurkat T cells [3]; NFV pretreatment, varying concentrations",dose-dependent reduction in apoptosis
same,ΔΨm loss,hepatocytes,inhibited
same,Apoptosis induced by H2O2 (viability),wild type yeast,inhibited in a dose responsive manner
same,Apoptosis induced by Vpr (viability),wild type yeast,inhibited in a dose responsive manner
same,ATR induced fluorescence release from PTPC liposomes,PTPC,progressively inhibited
same,ATR induced release of fluorescence from ANT liposomes,ANT,inhibited
same,Vpr induced release of fluorescence from ANT liposomes,ANT,inhibited
same,Apoptosis induced by PA and LT,RAW264.7 cells,significantly inhibited in a dose responsive manner
same,Levels of NFV compared to NFV alone,[4],significantly increased
same,MIC,Pseudomonas aeruginosa,> 10 µM
same,MIC,Enterococcus,> 10 µM
same,MIC,Streptococcus bovis,> 10 µM
same,"PK11195 induced apoptosis, ΔΨm, cytochrome c release, caspase 9, caspase 3 and PARP cleavage","Jurkat T cells [5]; PBR agonist PK11195, NFV pretreated",not altered
same,"STS induced apoptosis, ΔΨm, cytochrome c release, caspase 9, caspase 3 and PARP cleavage","Jurkat T cells [5]; VDAC agonist STS, NFV pretreated",not altered
"CC(C)c1nc(CN(C)C(=O)N[C@H](C(=O)N[C@@H](Cc2ccccc2)C[C@H](O)[C@H](Cc2ccccc2)NC(=O)OCc2cncs2)C(C)C)cs1 [RIT, ritonavir]",RIT levels in brain tissue,[2],32 μg/gm of brain tissue
same,concentration at 8 h,[2]; RIT levels in brain tissue,38000 ng/g
